According to US9944603B2, “Compounds and methods for the treatment of cystic fibrosis” (Flatley Discovery Lab, LLC, priority 2013, dated 2018):

Target: T1, human F508del CFTR (Homo sapiens, UniProt P13569, DEL508-508)
T1 construct: expressed in transfected cells
Assay: CFTR-YFP Assay, CFTR Corrector Protocol (YFP flux assay)
Format: cell-based
Details: for Emax: normalized to the positive control, read-out: EMAX (% Efficacy, EMAX normalized to the positive control)

T1 sequence (P13569 with tags, fused parts or gaps DEL508-508): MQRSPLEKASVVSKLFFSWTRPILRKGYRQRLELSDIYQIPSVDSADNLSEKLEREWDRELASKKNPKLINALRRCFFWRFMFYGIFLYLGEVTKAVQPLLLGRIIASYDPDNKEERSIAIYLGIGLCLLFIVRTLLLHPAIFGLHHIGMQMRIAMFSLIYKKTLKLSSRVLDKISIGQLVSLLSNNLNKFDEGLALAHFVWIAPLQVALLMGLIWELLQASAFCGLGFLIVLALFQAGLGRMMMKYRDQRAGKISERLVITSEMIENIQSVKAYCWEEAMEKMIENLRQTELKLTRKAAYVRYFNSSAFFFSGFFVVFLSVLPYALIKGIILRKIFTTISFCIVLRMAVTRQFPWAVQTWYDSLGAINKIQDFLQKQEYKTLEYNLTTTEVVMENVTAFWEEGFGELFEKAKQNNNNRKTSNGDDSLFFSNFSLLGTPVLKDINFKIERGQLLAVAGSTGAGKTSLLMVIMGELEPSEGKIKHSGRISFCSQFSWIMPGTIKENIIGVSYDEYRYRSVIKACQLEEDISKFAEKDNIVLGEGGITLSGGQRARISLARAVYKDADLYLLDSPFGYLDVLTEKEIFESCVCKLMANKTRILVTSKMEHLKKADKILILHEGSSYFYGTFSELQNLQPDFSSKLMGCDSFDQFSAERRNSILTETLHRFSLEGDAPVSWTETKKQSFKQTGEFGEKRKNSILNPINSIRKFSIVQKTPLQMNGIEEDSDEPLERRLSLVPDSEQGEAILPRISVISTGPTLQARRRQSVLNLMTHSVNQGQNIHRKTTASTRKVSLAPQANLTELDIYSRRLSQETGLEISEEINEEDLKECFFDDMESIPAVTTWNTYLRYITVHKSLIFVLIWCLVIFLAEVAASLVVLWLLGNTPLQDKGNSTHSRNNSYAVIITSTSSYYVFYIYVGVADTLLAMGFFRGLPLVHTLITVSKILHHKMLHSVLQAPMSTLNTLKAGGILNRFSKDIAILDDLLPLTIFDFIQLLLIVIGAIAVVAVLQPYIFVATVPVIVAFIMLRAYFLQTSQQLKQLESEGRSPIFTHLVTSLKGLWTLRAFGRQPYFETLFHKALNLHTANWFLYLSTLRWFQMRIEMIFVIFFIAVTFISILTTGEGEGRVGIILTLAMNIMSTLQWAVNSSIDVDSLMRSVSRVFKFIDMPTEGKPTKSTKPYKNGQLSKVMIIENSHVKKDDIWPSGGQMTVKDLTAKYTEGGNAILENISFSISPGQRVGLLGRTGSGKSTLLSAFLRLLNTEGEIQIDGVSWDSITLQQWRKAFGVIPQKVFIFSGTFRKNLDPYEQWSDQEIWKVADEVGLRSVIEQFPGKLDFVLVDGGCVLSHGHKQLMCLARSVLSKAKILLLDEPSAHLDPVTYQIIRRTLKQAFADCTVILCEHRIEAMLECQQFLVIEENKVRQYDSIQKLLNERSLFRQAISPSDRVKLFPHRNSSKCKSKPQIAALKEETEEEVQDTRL

Cc1cccc(N(C2CCN(S(=O)(=O)c3ccc4c(c3)OC(F)(F)O4)CC2)S(=O)(=O)c2ccccc2)n1 [Example 188]
EC50: < 10 µM | Emax: 10 to 30%

CCc1ccc(S(=O)(=O)N2CCC(N(c3cccc(C)n3)S(=O)(=O)c3ccccc3Cl)CC2)cc1 [Example 189]
EC50: < 10 µM | Emax: 30 to 80%

COc1ccc(S(=O)(=O)N2CCC(N(c3cccc(C)n3)S(=O)(=O)c3ccccc3Cl)CC2)cc1Cl [Example 190]
EC50: < 10 µM | Emax: 10 to 30%

Cc1cccc(N(C2CCN(S(=O)(=O)c3ccc4c(c3)OC(F)(F)O4)CC2)S(=O)(=O)c2ccccc2Cl)n1 [Example 191]
EC50: 10 to 20 µM | Emax: 10 to 30%

CCc1ccc(S(=O)(=O)N2CCC(N(c3cccc(C)n3)S(=O)(=O)c3c(C)cc(C)cc3C)CC2)cc1 [Example 192]
EC50: < 10 µM | Emax: 30 to 80%

COc1ccc(S(=O)(=O)N2CCC(N(c3cccc(C)n3)S(=O)(=O)c3c(C)cc(C)cc3C)CC2)cc1Cl [Example 193]
EC50: < 10 µM | Emax: 30 to 80%

Cc1cc(C)c(S(=O)(=O)N(c2cccc(C)n2)C2CCN(S(=O)(=O)c3ccc4c(c3)OC(F)(F)O4)CC2)c(C)c1 [Example 194]
EC50: < 10 µM | Emax: 30 to 80%

CCc1ccc(S(=O)(=O)N2CCC(N(C(=S)c3ccccc3)c3ccccn3)CC2)cc1 [Example 195]
EC50: < 10 µM | Emax: 30 to 80%

CCc1ccc(S(=O)(=O)N2CCC(N(C(=O)c3ccccc3Cl)c3ccccn3)CC2)cc1 [Example 196]
EC50: 10 to 20 µM | Emax: 30 to 80%

O=C(c1ccccc1Cl)N(c1ccccn1)C1CCN(S(=O)(=O)c2ccc3c(c2)OCO3)CC1 [Example 197]
EC50: < 10 µM | Emax: 10 to 30%

COc1ccc(S(=O)(=O)N2CCC(N(C(=O)c3ccccc3Cl)c3ccccn3)CC2)cc1Cl [Example 198]
EC50: < 10 µM | Emax: 10 to 30%

CCc1ccc(S(=O)(=O)N2CCC(N(C(=O)c3ccncc3Cl)c3ccccn3)CC2)cc1 [Example 199]
EC50: < 10 µM | Emax: 10 to 30%

COc1ccc(S(=O)(=O)N2CCC(N(C(=O)c3ccccc3Cl)c3cccc(C)n3)CC2)cc1F [Example 200]
EC50: < 10 µM | Emax: 10 to 30%

CCc1ccc(S(=O)(=O)N2CCC(N(C(=O)c3ccccc3Cl)c3cccc(C)n3)CC2)cc1 [Example 201]
EC50: < 10 µM | Emax: 30 to 80%

Cc1cccc(N(C(=O)c2ccccc2Cl)C2CCN(S(=O)(=O)c3ccc4c(c3)OCO4)CC2)n1 [Example 202]
EC50: < 10 µM | Emax: 10 to 30%

COc1ccc(S(=O)(=O)N2CCC(N(C(=O)c3ccccc3Cl)c3ccccn3)CC2)cc1F [Example 203]
EC50: < 10 µM | Emax: 1%

O=C(c1ccccc1)N(c1ccccn1)C1CCN(S(=O)(=O)c2ccc3c(c2)OC(F)(F)O3)CC1 [Example 204]
EC50: < 10 µM | Emax: 10 to 30%

Cc1cccc(N(C(=O)c2ccccc2)C2CCN(S(=O)(=O)c3ccc4c(c3)OC(F)(F)O4)CC2)n1 [Example 205]
EC50: < 10 µM | Emax: 10 to 30%

COc1ccc(S(=O)(=O)N2CCC(N(C(=O)c3ccccc3Cl)c3cccc(C)n3)CC2)cc1Cl [Example 206]
EC50: 10 to 20 µM | Emax: 10 to 30%

CCc1ccc(N(C(=O)c2ccccc2Cl)C2CCN(S(=O)(=O)c3ccc(CC)cc3)CC2)cc1 [Example 208]
EC50: 10 to 20 µM | Emax: 30 to 80%

CCc1ccc(S(=O)(=O)N2CCC(N(C(=O)c3ccccc3Cl)c3ccc4c(c3)OC(F)(F)O4)CC2)cc1 [Example 209]
EC50: < 10 µM | Emax: 30 to 80%

CCc1ccc(S(=O)(=O)N2CCC(N(C(=O)c3ccccc3Cl)c3ccccc3)CC2)cc1 [Example 210]
EC50: 10 to 20 µM | Emax: 30 to 80%

CCc1ccc(S(=O)(=O)N2CCC(N(C(=S)c3ccccc3Cl)c3ccc(OC)cc3)CC2)cc1 [Example 211]
EC50: 10 to 20 µM | Emax: 30 to 80%

CCc1ccc(S(=O)(=O)N2CCC(N(C(=S)c3ccccc3Cl)c3ccc4c(c3)OC(F)(F)O4)CC2)cc1 [Example 212]
EC50: 10 to 20 µM | Emax: 30 to 80%
